“Also recorded” adds a separate entry of the source.

For data set [1], the system named is lipid plasma compartment oxidation. Nature of the data set: Lipid plasma compartment oxidation, BODIPY 581/591 green fluorescence. Particulars: 2 mM initiator, 37° C.
Description: Plasma oxidation was measured fluorometrically using two different fluorescent probes: DCFH and BODIPY. DCFH-DA and BODIPY stock solutions were prepared in EtOH and dimethylsulfoxide, respectively, stored under nitrogen at −20° C. and used within two months. The final plasma dilution was 1:5 (v/v).
In the experiments using β-carotene, to avoid the filtering effect due to the carotenoid, the oxidation product of BODIPY was also detected at λex=520 and at λem-540 nm. The fluorescence measurements were carried out using a Perkin Elmer spectrofluorometer (model 650-10s) with 1 cm path length fluorescence cuvettes.
Briefly, β-carotene (dissolved in stabilized THF, 10 mg/ml) or α-tocopherol (4.3 mg/ml in EtOH) were added to plasma to reach a final concentration of 50 μM; the samples were then vortexed for 30 sec and incubated at 37±1° C. for 1 to 6 hr under nitrogen. […] Controls were prepared in the same way using solvent only.
The effect of adding the membrane soluble antioxidants, α-tocopherol (in EtOH) and β-carotene (in THF), pre-incubated with plasma, was studied. […] Values are mean±SD of five independent experiments. Statistical analysis: one-way ANOVA with Tukey's post test; *p<0.05, **p<0.01.
To monitor the aqueous phase oxidizability, AAPH was used as a hydrophilic radical generator and coupled to DCFH was used as the indicator.
Data set [2] has as its system oxidation of lipid compartment of plasma. Description: Lipid compartment oxidizability of plasma with BHT standard (MeO-AMVN, BODIPY 581/591). The following applies: for Green Fluorescence, 25 μM: equals Plasma minus Plasma + BHT. Here is the method: In order to standardize the method to determine the lipophilic antioxidant capacity, butylated hydroxytoluene (BHT), a phenolic synthetic antioxidant, was chosen as an internal standard. Polyenes and certain foods were packaged with added BHT to protect against oxidation. Plasma was incubated with BODIPY 581/591 in the presence and absence of BHT (25 & 50 µM) at 37° C. for 30 min, and determined for oxidizability in the lipid compartment. There was no significant difference among incubation times of 30 min, 1 hr and 2 hr, on the incorporation of BHT in the lipid compartment of plasma (FIG. 14). […] The concentration of BHT may also be reduced to a level sufficient to produce a detectable signal.

Data set [3] relates to aqueous peroxyl radicals generated by AAPH in human plasma. Nature of the data set: Consumption of endogenous plasma antioxidants induced by AAPH (HPLC). Particulars: for percentage remaining / Residual Amount (%): AAPH 20 mM for 120 min, no EGCG (control); for time to complete consumption in plasma: 20 mM AAPH, 37° C. Here is the method: In a second similar experiment, other antioxidants were studied. […] Echinenone in ethanol was added as an internal standard.

For data set [4] the following is noted: E(EGCG-O., H+/EGCG-OH); E(A−., H+/AH−); cited from earlier work.
A short description of data set [5]: ESR quenching of α-tocopheroxyl radical generated from α-tocopherol and DPPH. Particulars: unit inferred; read-out: IC50 quenching of α-TOC-O. ESR signal. The data set is classed as biochemical. Here is the method: α-TOC+DPPH→α-TOC-O.+DPPHH [1]
For sample preparation, α-tocopherol (900 μM) and DPPH (600 μM) in ethanol solution were mixed for 20 sec and 50 μl of the reaction mixture transferred into a capillary ESR tube. (−)-Epigallocatechin-(3)-gallate (EGCG) was added to the mixture immediately after DPPH decolorization (30 sec after DPPH addition).

Data set [6] relates to lipid peroxyl radicals generated by MeO-AMVN in human plasma. Nature of the data set: Consumption of endogenous plasma antioxidants induced by MeO-AMVN (HPLC). The following applies: for time to total disappearance in plasma: human plasma 1:5 with PBS, 37° C.
Description: After an overnight fast (10-12 h), blood from two healthy donors was collected in ethylenediaminetetraacetic acid (EDTA)-containing tubes. In order to reduce the variability of different donors, blood samples from these two subjects were collected weekly for the duration of the experiment. Immediately after collection, the samples were placed on ice and protected from light. Plasma was obtained by centrifugation at 800 g for 20 min at 4° C. and immediately used for the in vitro studies.
In the presence of 10-20 mM of AAPH, the flux of aqueous radicals calculated on the basis of the known rate of free radical generation from AAPH at 37° C.
In order to obtain homogeneous incorporation, the lipid soluble initiators were added slowly to the samples with a micro-syringe (10 μl) with stirring. The samples were then vortexed for 10 sec and incubated at 37±1° C. under aerobic conditions.
In a second similar experiment, other antioxidants were studied. […] A 100 μl aliquot of the reaction mixture was extracted for β-carotene and α-tocopherol analysis. Echinenone in ethanol was added as an internal standard. The mixture was extracted with CHCl3:CH3OH (2:1 v/v) containing 0.2% BHT and hexane containing 0.1% BHT, dried under nitrogen, redissolved in ethanol, and injected into an HPLC system with a C30 column (3 μm, 150×4.6 mm, YMC, Wilmington, N.C.).
For water-soluble antioxidant measurement, the mixtures were immediately deproteinized with perchloric acid (250 mM).
Results are expressed as percentages with respect to control samples prepared without the azo-compounds.
Where [7] appears, read: Subject 1, 2 hr incubation w/1 mM MeO-AMVN.
Where [8] appears, read: Subject 1, 3 hr incubation w/1 mM MeO-AMVN.
[9] abbreviates: Subject 2, 2 hr incubation w/1 mM MeO-AMVN.
Setting [10] is: Subject 2, 3 hr incubation w/1 mM MeO-AMVN.
Where [11] appears, read: Subject 3, 2 hr incubation w/1 mM MeO-AMVN.
The mark [12] stands for this setting: Subject 3, 3 hr incubation w/1 mM MeO-AMVN.

`CC(C)CC(C)(C#N)N=NC(C)(C#N)CC(C)C` (stereo not shown) [AMVN, 2,2′-azobis(2,4-dimethylvaleronitrile)]: the “change in BODIPY fluorescence in plasma” value in data set [1] is “no observed changes; also recorded: No change”.
In the case of `Cc1cc(C(C)(C)C)c(O)c(C(C)(C)C)c1` [BHT, butylated hydroxytoluene], the “protection of oxidation of lipid compartment” value in data set [2] (BHT added to plasma) was found to be 78%. Moreover, the “Green Fluorescence, Plasma + BHT” value was found to be 107 ± 1.4 in data set [2] (setting [7]); 217 ± 4.0 in data set [2] (setting [8]); 123 ± 7.3 in data set [2] (setting [9]); 223 ± 8.9 in data set [2] (setting [10]); 142 ± 8.0 in data set [2] (setting [11]); 250 ± 13.3 in data set [2] (setting [12]). Also, the “Green Fluorescence, 25 μM” value in data set [2] (setting [7]) was 382; in data set [2] (setting [8]), 806; in data set [2] (setting [9]) it was 347; in data set [2] (setting [10]), 650; in data set [2] (setting [11]) it was 245; in data set [2] (setting [12]) it was 551.
As to `CC1=C(/C=C/C(C)=C/C=C/C(C)=C/C=C/C=C(C)/C=C/C=C(C)/C=C/C2=C(C)C[C@@H](O)CC2(C)C)C(C)(C)CCC1` [Cryptoxanthin, cryptoxanthin], the “percentage remaining / Residual Amount (%)” value is 18.94 ± 3.86% in data set [3] and 18.94±3.86% in data set [3] (listed as cryptoxanthin).
For the compound `CC1=C[C@H](O)CC(C)(C)[C@H]1/C=C/C(C)=C/C=C/C(C)=C/C=C/C=C(C)/C=C/C=C(C)/C=C/C1=C(C)C[C@@H](O)CC1(C)C` [Lutein, lutein], the “percentage remaining / Residual Amount (%)” value is given as 12.82 ± 4.85% in data set [3] and 12.82±4.85% in data set [3] (listed as lutein).
Take `CC(C)=CCC/C(C)=C/C=C/C(C)=C/C=C/C(C)=C/C=C/C=C(C)/C=C/C=C(C)/C=C/C=C(\C)CCC=C(C)C` [Lycopene, lycopene]: the “percentage remaining / Residual Amount (%)” value in data set [3] is 8.49 ± 5.20%; in data set [3] (listed as lycopene), 8.49±5.20%.
For `CC1=C(/C=C/C(C)=C/C=C/C(C)=C/C=C/C=C(C)/C=C/C=C(C)/C=C/C2=C(C)C[C@@H](O)CC2(C)C)C(C)(C)C[C@H](O)C1` [Zeaxanthin, zeaxanthin], the “percentage remaining / Residual Amount (%)” value in data set [3] is 17.50 ± 5.98%; in data set [3] (listed as zeaxanthin), 17.50±5.98%.
Consider `O=C1O[C@H]([C@@H](O)CO)C(O)=C1O` [ascorbic acid], for which the “time to complete consumption in plasma” value in data set [3] (human plasma 1:5 with PBS) was ≤ 15 min. The “redox potential E” value in data set [4] is recorded as 0.28 V. Moreover, the half-maximal inhibitory concentration (IC50) in data set [5] amounted to 14.2 µM. In addition, the “time to total disappearance in plasma” value in data set [6] (2 mM MeO-AMVN) amounted to 30 min.
Turning to `O=c1[nH]c(=O)c2[nH]c(=O)[nH]c2[nH]1` [uric acid], the “time to complete consumption in plasma” value in data set [3] (human plasma 1:5 with PBS) is ≤ 180 min. Also, the “time to total disappearance in plasma” value in data set [6] (2 mM MeO-AMVN) is 300 min.
For `Cc1c(C)c2c(c(C)c1O)CC[C@@](C)(CCC[C@H](C)CCC[C@H](C)CCCC(C)C)O2` [α-tocopherol], the “time to almost complete consumption in plasma” value in data set [3] (10-20 mM AAPH, human plasma 1:5 with PBS) is ≤ 30 min. Moreover, the “percentage remaining / Residual Amount (%)” value in data set [3] turned out to be 3.86±0.94%. In addition, the “time to almost total depletion” value in data set [6] (2 mM MeO-AMVN) is 60 min. For the same compound, the “content reduced by” value in data set [6] (2 mM MeO-AMVN, at 30 min) was found to be 42%. Moreover, the “% α-tocopherol remaining” value in data set [6] (control without EGCG, MeO-AMVN) is recorded as 16.43±1.72%.
In the case of `CC1=C(/C=C/C(C)=C/C=C/C(C)=C/C=C/C=C(C)/C=C/C=C(C)/C=C/C2=C(C)CCCC2(C)C)C(C)(C)CCC1` [β-Carotene, β-carotene], the “percentage remaining / Residual Amount (%)” value in data set [3] turned out to be 28.89±6.17%.

The IC50 is the concentration that inhibits the measured activity by half.

(Values after US20020182736A1, “Methods to measure lipid antioxidant activity” (TRUSTEES OF TUFTS COLLEGE, priority 2001, published 2002).)
